According to patent US20060069132A1, “Azolecarboxamide herbicides” (priority 2004, published 2006):

Key:
barnyardgrass [1] = experiment: Test A pre-/postemergence herbicide test; format: in vivo, Echinochloa crus-galli
Procedure, shortened: (§1)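 Seeds sown in sandy loam received a preemergence directed soil spray of compound in non-phytotoxic solvent with surfactant; postemergence plants (2–10 cm, one- to two-leaf stage) were sprayed to runoff at the same time. After ~10 days in greenhouse, injury was rated visually versus untreated controls (0 = no effect, 100 = complete control).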

barnyardgrass [2] = experiment: Test B pre-/postemergence herbicide test; format: in vivo, Echinochloa crus-galli; settings: for Barnyardgrass plant response rating: postemergence
Procedure, shortened: (§2)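 Greenhouse pot assay with simultaneous preemergence (treated seed) and postemergence (2–18 cm seedlings) applications of surfactant-containing, non-phytotoxic solvent formulations. Response scored visually 13–15 days later on a 0–100 scale, 100 meaning complete control.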

morningglory [3] = experiment: Test B pre-/postemergence herbicide test; format: in vivo, Ipomoea coccinea; settings: for Morningglory plant response rating: postemergence
Procedure, shortened: as §2

large crabgrass [4] = experiment: Test B pre-/postemergence herbicide test; format: in vivo, Digitaria sanguinalis; settings: for Crabgrass, Large plant response rating: postemergence
Procedure, shortened: (§3)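 Test chemicals in a non-phytotoxic solvent mixture with surfactant were applied preemergence to seeded species and postemergence to plants 2-18 cm tall (1- to 4-leaf stage); rice and barnyardgrass were also tested in a flooded paddy at the 2-leaf stage. Visual rating versus controls after 13-15 days in greenhouse, scale 0 (no effect) to 100 (complete control).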

pigweed = experiment: Test B pre-/postemergence herbicide test; format: in vivo, Amaranthus retroflexus; settings: for Pigweed plant response rating: postemergence
Procedure, shortened: as §3

morningglory [5] = experiment: Test A pre-/postemergence herbicide test; format: in vivo, Ipomoea spp.
Procedure, shortened: as §1

wheat = experiment: Test B postemergence herbicide test; format: in vivo, Triticum aestivum; design: key to Wheat plant response rating: 0 = no effect, 100 = complete control; settings: postemergence
Procedure, shortened: (§4)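 Scale 0–100: zero equals no visible effect, 100 complete control, judged by eye relative to controls. Timing: 13 to 15 days in greenhouse post-treatment. Growth stage at spraying: two leaves (paddy) or one to four leaves, 2–18 cm (postemergence).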

large crabgrass [6] = experiment: Test A pre-/postemergence herbicide test; format: in vivo, Digitaria sanguinalis
Procedure, shortened: as §1

velvetleaf [7] = experiment: Test A pre-/postemergence herbicide test; format: in vivo, Abutilon theophrasti
Procedure, shortened: as §1

blackgrass = experiment: Test B postemergence herbicide test; format: in vivo, Alopecurus myosuroides; settings: postemergence
Procedure, shortened: (§5)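 Greenhouse test; postemergence application to plants at 1–4 leaves (2–18 cm); paddy species at 2 leaves; evaluated visually vs controls at 13–15 days; scale 0–100 (100 = complete control).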

giant foxtail [8] = experiment: Test A pre-/postemergence herbicide test; format: in vivo, Setaria faberi
Procedure, shortened: as §1

lambsquarters = experiment: Test B pre-/postemergence herbicide test; format: in vivo, Chenopodium album; settings: for Lambsquarters plant response rating: postemergence
Procedure, shortened: as §3

velvetleaf [9] = experiment: Test B pre-/postemergence herbicide test; format: in vivo, Abutilon theophrasti; settings: for Velvetleaf plant response rating: postemergence
Procedure, shortened: as §3

[10] = tested on: small flower umbrella sedge; experiment: Test B flooded paddy test; format: in vivo, Cyperus difformis; settings: 1000 g ai/ha, scale 0 to 100 (0 no effect, 100 complete control)
Procedure, shortened: as §5

wild oat = experiment: Test B postemergence herbicide test; format: in vivo, Avena fatua; settings: postemergence
Procedure, shortened: as §4

Surinam grass = experiment: Test B pre-/postemergence herbicide test; format: in vivo, Urochloa decumbens; settings: for Surinam Grass plant response rating: postemergence
Procedure, shortened: as §3

giant foxtail [11] = experiment: Test B pre-/postemergence herbicide test; format: in vivo, Setaria faberi; settings: for Foxtail, Giant plant response rating: postemergence
Procedure, shortened: as §3

cocklebur = experiment: Test B pre-/postemergence herbicide test; format: in vivo, Xanthium strumarium; settings: for Cocklebur plant response rating: postemergence
Procedure, shortened: as §2

ducksalad = experiment: Test B flooded paddy test; format: in vivo, Heteranthera limosa; settings: 1000 g ai/ha, scale 0 to 100 (0 no effect, 100 complete control)
Procedure, shortened: as §5

barnyardgrass [12] = experiment: Test B flooded paddy test; format: in vivo, Echinochloa crus-galli; settings: 1000 g ai/ha, scale 0 to 100 (0 no effect, 100 complete control)
Procedure, shortened: as §5

redroot pigweed = experiment: Test A pre-/postemergence herbicide test; format: in vivo, Amaranthus retroflexus
Procedure, shortened: as §1

rice = experiment: Test B flooded paddy test; format: in vivo, Oryza sativa; settings: 1000 g ai/ha, scale 0 to 100 (0 no effect, 100 complete control)
Procedure, shortened: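 Paddy species grown to the 2-leaf stage under flooding; blackgrass sprayed postemergence at 2–18 cm (1- to 4-leaf stage). Plants kept in a greenhouse for 13 to 15 days, then visually rated against controls on 0 (no effect) to 100 (complete control).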

corn = experiment: Test B pre-/postemergence herbicide test; format: in vivo, Zea mays; settings: for Corn plant response rating: postemergence
Procedure, shortened: as §3

[13] = Postemergence, 500 g ai/ha, 0 to 100 scale, 0 no effect, 100 complete control
[14] = Postemergence, 2000 g ai/ha, 0 to 100 scale, 0 no effect, 100 complete control
[15] = Preemergence, 2000 g ai/ha, visual rating, 0 to 100 scale (0 no effect, 100 complete control)
[16] = preemergence, 500 g ai/ha, visual injury, 0 to 100 scale (0 no effect, 100 complete control)
[17] = 125 g ai/ha, 0 is no effect, 100 is complete control, preemergence
[18] = 125 g ai/ha, visual rating, scale 0 (no effect) to 100 (complete control)
[19] = 500 g ai/ha, visual rating, 0 = no effect, 100 = complete control, preemergence
[20] = 500 g ai/ha, scale 0 to 100, 0 is no effect, 100 is complete control

CCc1nn(C2CCCC2)nc1C(=O)Nc1cccc(C(=O)N(C)C)c1 [Compound 355]
Barnyardgrass plant response rating (barnyardgrass [1]; [13]): 40
Plant response rating, Barnyardgrass (barnyardgrass [1]; [14]): 75
Barnyardgrass plant response rating (barnyardgrass [1]; [15]): 80
Barnyardgrass plant response rating (barnyardgrass [1]; [16]): 50
Plant response rating (0 to 100 scale), Barnyardgrass (barnyardgrass [2]; [17]): 70
Barnyardgrass plant response rating (barnyardgrass [2]; [18]): 0
Plant response rating, Barnyardgrass (barnyardgrass [2]; [19]): 90
Barnyardgrass plant response rating (barnyardgrass [2]; [20]): 10
Plant response rating (0 to 100 scale), Morningglory (morningglory [3]; [17]): 10
Morningglory plant response rating (morningglory [3]; [18]): 10
Plant response rating, Morningglory (morningglory [3]; [19]): 10
Morningglory plant response rating (morningglory [3]; [20]): 40
Plant response rating (0 to 100 scale), Crabgrass, Large (large crabgrass [4]; [17]): 70
Crabgrass, Large plant response rating (large crabgrass [4]; [18]): 10
Plant response rating, Crabgrass, Large (large crabgrass [4]; [19]): 100
Crabgrass, Large plant response rating (large crabgrass [4]; [20]): 10
Plant response rating (0 to 100 scale), Pigweed (pigweed; [17]): 50
Pigweed plant response rating (pigweed; [18]): 20
Plant response rating, Pigweed (pigweed; [19]): 100
Pigweed plant response rating (pigweed; [20]): 50
Morningglory plant response rating (morningglory [5]; [13]): 15
Plant response rating, Morningglory (morningglory [5]; [14]): 75
Morningglory plant response rating (morningglory [5]; [15]): 40
Morningglory plant response rating (morningglory [5]; [16]): 10
Wheat plant response rating (wheat; [18]): 0
Wheat plant response rating (wheat; [20]): 20
Crabgrass, Large plant response rating (large crabgrass [6]; [13]): 10
Plant response rating, Crabgrass, Large (large crabgrass [6]; [14]): 30
Crabgrass, Large plant response rating (large crabgrass [6]; [15]): 50
Crabgrass, Large plant response rating (large crabgrass [6]; [16]): 20
Velvetleaf plant response rating (velvetleaf [7]; [13]): 15
Plant response rating, Velvetleaf (velvetleaf [7]; [14]): 65
Velvetleaf plant response rating (velvetleaf [7]; [15]): 55
Velvetleaf plant response rating (velvetleaf [7]; [16]): 25
Blackgrass plant response rating (blackgrass; [18]): 0
Blackgrass plant response rating (blackgrass; [20]): 20
Foxtail, Giant plant response rating (giant foxtail [8]; [13]): 10
Plant response rating, Foxtail, Giant (giant foxtail [8]; [14]): 45
Foxtail, Giant plant response rating (giant foxtail [8]; [15]): 60
Foxtail, Giant plant response rating (giant foxtail [8]; [16]): 20
Plant response rating (0 to 100 scale), Lambsquarters (lambsquarters; [17]): 80
Lambsquarters plant response rating (lambsquarters; [18]): 10
Plant response rating, Lambsquarters (lambsquarters; [19]): 100
Lambsquarters plant response rating (lambsquarters; [20]): 70
Plant response rating (0 to 100 scale), Velvetleaf (velvetleaf [9]; [17]): 0
Velvetleaf plant response rating (velvetleaf [9]; [18]): 30
Velvetleaf plant response rating (velvetleaf [9]; [20]): 50
Sedge, Umbrella plant response rating [10]: 70
Oat, Wild plant response rating (wild oat; [18]): 0
Oat, Wild plant response rating (wild oat; [20]): 30
Plant response rating (0 to 100 scale), Surinam Grass (Surinam grass; [17]): 40
Surinam Grass plant response rating (Surinam grass; [18]): 10
Plant response rating, Surinam Grass (Surinam grass; [19]): 80
Surinam Grass plant response rating (Surinam grass; [20]): 20
Plant response rating (0 to 100 scale), Foxtail, Giant (giant foxtail [11]; [17]): 10
Foxtail, Giant plant response rating (giant foxtail [11]; [18]): 20
Plant response rating, Foxtail, Giant (giant foxtail [11]; [19]): 90
Foxtail, Giant plant response rating (giant foxtail [11]; [20]): 30
Plant response rating (0 to 100 scale), Cocklebur (cocklebur; [17]): 0
Cocklebur plant response rating (cocklebur; [18]): 0
Plant response rating, Cocklebur (cocklebur; [19]): 10
Cocklebur plant response rating (cocklebur; [20]): 10
Ducksalad plant response rating (ducksalad): 70
Barnyardgrass plant response rating (barnyardgrass [12]): 50
Pigweed plant response rating (redroot pigweed; [13]): 40
Plant response rating, Pigweed (redroot pigweed; [14]): 90
Pigweed plant response rating (redroot pigweed; [15]): 50
Pigweed plant response rating (redroot pigweed; [16]): 10
Rice plant response rating (rice): 50
Plant response rating (0 to 100 scale), Corn (corn; [17]): 20
Corn plant response rating (corn; [18]): 0
Plant response rating, Corn (corn; [19]): 60
Corn plant response rating (corn; [20]): 0
